Read-outs that look alike come from different tables or passages of the source.

The results in this text go back to US10487078B2, “Compositions and methods of targeting mutant K-RAS” (NantBio, Inc., priority 2015, dated 2019).

The target in one assay is K-ras G12D (Homo sapiens, UniProt P01116, G12D). Nature of the assay: G-LISA Ras activation assay, 293H cells transfected with G12D mutant. In kind it is cell-based. The note with it: for IC50: 1 hour treatment. The method, boiled down:
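293H cells transfected with WT, G12D or G12V K-Ras plasmid, next day exposed to 3.125–50 μM compound for 1 h. WT-transfected cells then stimulated with 100 ng/ml EGF for 2 min. Cells lysed on ice; active Ras measured by G-LISA.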

For another assay, the target named is K-ras G12V (Homo sapiens, UniProt P01116, G12V). Kind of assay: G-LISA Ras activation assay, 293H cells transfected with G12V mutant. Conditions: 1 hour treatment. The format is cell-based. Here is the method:
(§1) 293H cells were seeded in 6-wells at 0.6×10^6 cells per well and transfected next day with 5 μg of Ras wild-type, or G12C, G12D or G12V mutant DNA plasmid vector using transfection reagent Lipofectamine 3000. Next day cells were treated with 3.125-50 μM of Ras compounds for 1 hour. Wild-type transfected cells were subsequently treated with 100 ng/ml EGF for 2 minutes. Cells were washed once in ice-cold PBS, lysed in complete lysis buffer on ice, and processed by G-LISA according to Cytoskeleton protocol.
In-cell selectivity of the compounds presented herein against a specific K-ras mutant form can also be tested as shown in the following exemplary experiment. 293H cells were seeded in 6-wells and transfected next day with 5 μg of Ras wild-type, or G12C, G12D or G12V mutant DNA plasmid vector. Next day cells were treated with 3.125-50 μM of Ras compounds for 1 hour. Wild-type transfected cells were subsequently treated with 100 ng/ml EGF for 2 minutes. Cells were washed once in ice-cold PBS, lysed in complete lysis buffer on ice, and processed by G-LISA according to Cytoskeleton protocol. FIG. 1 depicts exemplary results.
as §1, with “In still further experiments, the inventors tested selected compounds in a G-LISA assay to compare IC50 values for wild-type and various mutant K-Ras (G12D, G12V) using the following general protocol: 293H” for “293H”

The subject of assay [1] is Erk phosphorylation in Panc1 (G12D) cells. Kind of assay: In-Cell Western Erk phosphorylation. Conditions: EC50, one hour treatment; read-out: In-Cell Western Erk phosporylation Panc1 (G12D). The format is cell-based. Here is the method:
(§2) In-cell phosphorylation assays for Erk and Akt were performed on various of the compounds and exemplary results are shown in Table 3 below using […] and Panc10.05 cell lines for G12D K-ras mutants.
(§3) Cells are seeded in complete medium into black sided, clear-bottom 384-well microplates at 3000 cells/[…]/well. Plates are returned to 37° C. CO2 incubator for 18 hr. Drug is made as 200× in DMSO and diluted into medium to 10×. To each well is added 4 ul 10× test article or controls, and plates are returned to the incubator. Final assay DMSO concentration is 0.5%. After one hour, cells are fixed in formaldehyde, rinsed & permeabilized with triton X-100, and blocked with BSA/Goat serum blocking solution. Primary phospho-Akt and phospho-ERK antibodies are added and plates are incubated overnight at 4° C. Plates are rinsed with Tween-20 wash buffer and secondary antibody (Goat anti-rabbit, Thermofisher) is added. After 2 hours, plates are rinsed in Tween-20 wash buffer, and then PBS. Plates are imaged on the Celigo (Nexcelom) and cellular fluorescence is quantitated. Full inhibition of phospho-Akt is achieved with 1 uM BEZ235 (Sellekchem), while full inhibition of phospho-ERK is achieved with 1 uM MEK Inhibitor II Calbiochem). EC50 values are calculated using Graphpad Prism.

The test system of assay [2] is Erk phosphorylation in Panc10.05 (G12D) cells. Nature of the assay: In-Cell Western Erk phosphorylation. In kind it is cell-based. The note with it: EC50, one hour treatment; read-out: In-Cell Western Erk phosporylation Panc10.05 (G12D). As to the method:
as §2, §3

For assay [3], the system named is Akt phosphorylation in Panc1 (G12D) cells. Kind of assay: In-Cell Western Akt phosphorylation. The format is cell-based. The note with it: EC50, one hour treatment; read-out: In-Cell Western Akt phosporylation Panc1 (G12D). Here is the method: as §2, §3
The test system of assay [4] is Akt phosphorylation in Panc10.05 (G12D) cells. Nature of the assay: In-Cell Western Akt phosphorylation. The note with it: EC50, one hour treatment; read-out: In-Cell Western Akt phosporylation Panc10.05 (G12D). The format is cell-based. Here is the method: as §2, §3
Another assay has as its target K-ras G12V (GTP) (Homo sapiens, UniProt P01116, G12V). Nature of the assay: SPR assay (surface plasmon resonance). In kind it is binding. The note with it: 25° C., 8% DMSO. In a few lines: (§4)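 His-tagged K-ras (GDP- or GTP-bound) captured on Ni-NTA surface (4000 RU); running buffer 10 mM HEPES pH 7.4, 150 mM NaCl, 0.1% Tween-20, 1 mM MgCl2, 8% DMSO; 25° C, 50 μL/min. Compounds injected by Taylor diffusion gradient, buffer blanks double-referenced, kinetic/affinity model fitting.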
For orientation: In SPR one partner is held on a chip, and binding of the other changes the refractive index at the surface.

In a further assay the target is K-ras wild-type (GDP) (Homo sapiens, UniProt P01116). Kind of assay: SPR assay (surface plasmon resonance). The note with it: 25° C., 8% DMSO. The format is binding. In a few lines: as §4
The next assay deals with K-ras wild-type (GTP) (Homo sapiens, UniProt P01116). Nature of the assay: SPR assay (surface plasmon resonance). The format is binding. Conditions: 25° C., 8% DMSO. The method, boiled down:
as §4

Assay [5] concerns Ras in BxPC-3 (K-Ras wild-type), Panc10.05 (K-Ras G12D mutant), Capan-2 (K-Ras G12V) cells. Nature of the assay: G-LISA Ras inhibition in cancer cell lines (FIG. 2). The format is cell-based. Conditions: 3.1 to 25 μM, 1 hour, then 100 ng/ml EGF 2 minutes. As to the method:
To verify the results in specific cancer cell lines, cancer cell lines BxPC-3 (K-Ras wild-type), Panc10.05 (K-Ras G12D mutant), and Capan-2 (K-Ras G12V) were treated with 3.1 to 25 μM of Ras compound A0837 for 1 hour before stimulation with 100 ng/ml EGF for 2 minutes. Cells were washed once in ice-cold PBS, lysed in complete lysis buffer on ice, and processed by G-LISA according to Cytoskeleton protocol.

`Cc1nc(C)c(C(=O)Nc2nc(-c3ccc4[nH]c(=O)[nH]c4c3)cs2)s1` [Compound 4562]: on K-ras G12D (293H transfected with wild-type, G12C, G12D or G12V, 3.125-50 μM, 1 hour), the “In-cell selectivity among K-ras forms, G-LISA (FIG. 1)” value is “pronounced selectivity towards the G12D mutant form”. Besides, the “IC50 for G12D compared to the wild type, G-LISA (FIG. 1)” value at K-ras G12D (293H transfected, 3.125-50 μM, 1 hour) is on record as “lower IC50 as compared to the wild type”. Besides, the IC50 was 10 µM on K-ras G12D (Table 1, G-LISA, 293H transfected, read-out: IC50 (μM) G12D); 7 to 13 µM at K-ras G12D (Table 5, IC50, 293H transfected, read-out: G-LISA (G12D)); 38 µM on K-ras G12V (Table 1, G-LISA, 293H transfected, read-out: IC50 (μM) G12V); 38 µM at K-ras G12V (Table 5, IC50, 293H transfected, read-out: G-LISA (G12V)). Moreover, the EC50 was determined as 5 µM in assay [1], 4 µM in assay [2], 8 µM in assay [3] and 22 µM in [4]. The “SPR Assay G12V (GTP) Rmax” value on K-ras G12V (GTP) is “Rmax = 300000”. Also, the Kd (in general, the concentration at which binding is half-saturated) at K-ras G12V (GTP) (value in mM) was 10 mM. Also, on K-ras wild-type (GDP), the “SPR Assay Wild-type (GDP) Kd” value is “No”. Moreover, the “SPR Assay Wild-type (GTP) Kd” value at K-ras wild-type (GTP) is on record as “No binding/fit”. Besides, in assay [5], the “Selectivity of Ras inhibition in cancer cell lines, G-LISA (FIG. 2)” value is given as “clear selectivity towards K-ras mutant G12D”.
